In PubChem BioAssay (NCI):
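Compound exposure: 48 hours, 5 concentrations, 96-well plates. The concentration for 50% growth inhibition is given as GI50. TGI: total growth inhibition.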

How the values were obtained:
Experiment in all cases: growth of human tumour cells (NCI), 48 h
[1] = test system: EKVX NSCLC
[2] = test system: K-562 leukemia
[3] = test system: MOLT-4 leukemia
[4] = test system: OVCAR-4 ovarian
[5] = test system: OVCAR-5 ovarian
[6] = test system: OVCAR-8 ovarian
[7] = test system: SF-295 CNS
[8] = test system: SK-MEL-28 melanoma
[9] = test system: SK-MEL-5 melanoma
[10] = test system: SNB-19 CNS

SMILES | TGI [1] [µM] | TGI [2] [µM] | TGI [3] [µM] | TGI [4] [µM] | TGI [5] [µM] | TGI [6] [µM] | TGI [7] [µM] | TGI [8] [µM] | TGI [9] [µM] | TGI [10] [µM] | GI50 [1] [µM] | GI50 [2] [µM] | GI50 [3] [µM] | GI50 [4] [µM] | GI50 [5] [µM] | GI50 [6] [µM] | GI50 [7] [µM] | GI50 [8] [µM] | GI50 [9] [µM]
NC(=S)N/N=C/c1ccc(OC(=O)COc2ccccc2Cl)cn1 | 97.8 | > 100 | > 88.7 | > 100 | 97.9 | > 100 | > 100 | > 100 | > 100 | > 100 |  |  |  |  |  |  |  |  | 
CCOC(=O)Oc1ccc2c(c1)c(=O)c1c(NCCCN(CC)CC)ccc3nnn2c31 | 23 | > 52.7 | > 100 | 20.2 | 33.5 | 19.5 | 21.3 | 33.2 | 23.2 | 19.5 |  |  |  |  |  |  |  |  | 
C/C([O-])=C(/c1nc(-c2ccc([N+](=O)[O-])o2)no1)[n+]1cc(C)ccc1C | > 100 | > 51.9 | > 100 | 63.9 | 37.5 | > 76.6 | 24.1 | 25.6 | 23.4 | 41.5 |  |  |  |  |  |  |  |  | 
Cc1nc(N(CCO)CCO)c2sc(=S)n(-c3ccccc3)c2n1 |  | > 100 | > 100 |  | > 100 | > 100 | > 100 | > 100 | > 100 | > 100 |  |  |  |  |  |  |  |  | 
COc1cc(Cc2ccc3c(c2C#N)N(C)c2ccccc2S3)cc(OC)c1OC | > 100 | > 100 | > 100 | > 100 | > 100 | > 100 | > 100 | > 100 |  | > 100 |  |  |  |  |  |  |  |  | 
C/C(=N\NC(=S)Nc1ccc(Cl)cc1)c1nc2ncccc2[nH]1 | 13.1 | 44.2 | 22.2 | 41.4 | 21.3 |  | 13.5 | 13.3 | 6.5 | > 100 |  |  |  |  |  |  |  |  | 
COc1cc(C2S/C(=C/c3ccccc3)C(=O)N2c2ccccc2Cl)cc(OC)c1OC (centres undefined) | 50.8 |  | > 100 | > 100 | > 100 | 49.8 | > 100 | > 100 | 75.1 | > 100 |  |  |  |  |  |  |  |  | 
Cc1ccc(S(=O)(=O)Nc2cc(Sc3ccccc3)c(O)c3ccccc23)cc1 | 25.3 | 10.7 | 5.62 | 2.95 | 21.3 | 5.88 | 26.8 | 15 | 13.1 |  | 12.3 | 3.38 | 1.96 | 1.59 | 7.11 | 2.28 | 12.9 | 4.4 | 3.57
COC(=O)C1=C(O)C(C(=O)OC)[C@@]2(O)[C@@H](C(=O)OC)CC[C@@H]1[C@@H]2C(=O)OC (some centres undefined) | 85.7 | > 100 | > 100 |  | 70.2 |  |  | > 100 |  | > 100 |  |  |  |  |  |  |  |  | 
Cc1ncc(CO)c(C=NCCCCCCN=Cc2c(CO)cnc(C)c2O)c1O | > 100 | > 100 | > 100 | > 100 | > 100 | > 100 | > 100 | > 100 | > 100 | > 100 |  |  |  |  |  |  |  |  | 
CCOC(=O)C(=O)Nc1cccc(C)c1C | > 100 | > 100 | > 100 | > 100 | > 100 | > 100 | > 100 | > 100 | > 100 | > 100 |  |  |  |  |  |  |  |  | 
O=c1oc2c(ccc3c(O)cccc32)c2c1CCCC2 | > 100 | > 100 | > 100 | > 100 | > 100 | > 100 | 58 | > 100 | > 100 | > 100 |  |  |  |  |  |  |  |  | 
CCOC(=O)/C(=N/Nc1ccc(Cl)cc1)N1C(=S)C=C(C)NN(C)C1=S | 73 | > 100 | > 100 | > 100 | > 100 | 73.1 | 42.3 | > 100 | > 100 | > 100 |  |  |  |  |  |  |  |  | 
O=C(O)CN=c1c2ccccc2n(O)c2ccccc12 | > 100 | 26.9 | > 100 | > 100 | > 100 | > 100 | > 100 | > 100 | > 100 | > 100 |  |  |  |  |  |  |  |  | 
